The values that follow come from paper PMC6017200, “Inhibition of Cytochrome P450 Activities by Extracts of Hyptis verticillata Jacq.: Assessment for Potential HERB-Drug Interactions” (Molecules : A Journal of Synthetic Chemistry and Natural …, 2018).

The nature of data set [1]: DPPH radical scavenging antioxidant assay. The conditions noted are these: 0.097 to 50 µg/mL in methanol, thirty-minute incubation, 517 nm. How it is done:
The 1,1-diphenyl-2-picrylhydrazyl (DPPH) assay was used to measure the antioxidant capacity of four different extracts of the aerial parts of H. verticillata (Figure 2). The reduction of DPPH to hydrazine produces a colour change from purple to yellow, which is measured spectrophotometrically and compared with the known antioxidant, ascorbic acid, as described in the Materials and Methods section.
Figure 2 (A) DPPH antioxidant assay for H. verticillata extracts. […] Positive control activity was determined in the presence of varying concentrations of known antioxidant, ascorbic acid, ranging from 0.097 to 50 µg/mL. Data are expressed as Mean Percentage Antioxidant Activity (% Inhibition of DPPH) for duplicate assays for at least two independent experiments. (B) Summary of results. […]
The DPPH radical scavenging capacity of extracts of H. verticillata were evaluated by the method described by Williams et al.. The electron-donating ability of each extract, at varying concentrations, was measured colourimetrically through the bleaching of purple-coloured MeOH solution of DPPH. […]
Each test extract, as well as the ascorbic acid control, was made up in methanol to a starting concentration of 50 µg/mL and serially diluted in ninety-six well microtitre plates. […] After a thirty-minute incubation period at room temperature, the absorbance was read against a blank, comprising methanol, at 517 nm. […]
(In general: The DPPH test is a chemical assay of radical scavenging.)

The target in the next data set is T1, human CYP1A2 (Homo sapiens, UniProt P05177).
T1 sequence (P05177 1-516): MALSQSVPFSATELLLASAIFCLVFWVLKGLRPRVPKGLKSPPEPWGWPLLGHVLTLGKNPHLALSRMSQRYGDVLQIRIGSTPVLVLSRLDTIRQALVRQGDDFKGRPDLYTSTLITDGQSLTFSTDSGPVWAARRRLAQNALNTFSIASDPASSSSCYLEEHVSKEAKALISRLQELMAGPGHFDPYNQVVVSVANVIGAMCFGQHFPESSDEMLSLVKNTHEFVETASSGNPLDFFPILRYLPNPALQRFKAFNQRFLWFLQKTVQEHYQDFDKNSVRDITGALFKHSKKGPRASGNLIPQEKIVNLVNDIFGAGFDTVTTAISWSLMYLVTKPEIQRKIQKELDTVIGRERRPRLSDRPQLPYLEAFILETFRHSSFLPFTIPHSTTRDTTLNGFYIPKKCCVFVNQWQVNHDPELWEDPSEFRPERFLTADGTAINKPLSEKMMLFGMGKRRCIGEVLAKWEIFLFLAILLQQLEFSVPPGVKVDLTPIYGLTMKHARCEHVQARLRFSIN
Description: biochemical. How it is done: Escherichia coli membranes expressing human CYP1A1, CYP1A2, CYP1B1, CYP3A4, and CYP2D6, co-expressed with CYP reductase, were purchased from Cypex Ltd. (Dundee, UK).
The following methodology was developed by Crespi et al. and adapted by Shields et al. and Murray et al. to screen natural products for cytochrome P450 inhibition potential with a particular emphasis on the P450 enzymes, CYPs 1A1, 1A2, 1B1, 3A4 and 2D6. Plant extracts and various phytochemicals were evaluated for their ability to inhibit the catalytic activity of human cytochrome P450 enzymes by means of high throughput fluorometric inhibition assays conducted in 96 well microtitre plates as described by Crespi et al., BD Gentest and Murray et al..
7-Ethoxy-3-cyanocoumarin (CEC) was used as a substrate for detecting the activities of CYPs 1A1, and 1A2, 7-ethoxyresorufin (ERes) for CYP1B1, 7-benzyloxy-4-trifluoromethylcoumarin (BFC) for CYP3A4, and 3-[2-(N,N-diethyl-N-methylammonium)-ethyl]-7-methoxy-4-methylcoumarin (AMMC) for CYP2D6. The reactions were monitored fluorometrically at 37 °C, using an Eclipse Fluorescence Spectrophotometer (Varian Cary, Palo Alto, CA, USA).
The data listed represent average values from a minimum of two experiments run in triplicate: % Enzyme activity = [Min + (Max − Min)/(1+10^((LogIC50^− x) × p))] where Min and Max are the minimal and maximal observed effects, respectively; x is the concentration of test agent; EC50 is the concentration yielding half-maximal response (i.e., IC50); and p is the slope parameter.

The test system of the next data set is CYP2D6. The conditions noted are these: read-out: IC50 Value, reported CYP2D6 inhibition, cited from earlier work.
The next data set has as its system CYP3A4. The conditions noted are these: cited from earlier work; for IC50: read-out: IC50 Value, reported CYP3A4 inhibition.
For another data set, the system named is CYP2C9. Set-up: method as in PMID 21276781. The conditions noted are these: read-out: IC50 Value, reported CYP2C9 inhibition; cited from earlier work.
Details of data set [2]: method as in PMID 24413832. The following applies: aerial dried samples in ethanol; cited from earlier work.
For the next data set, the system named is CYP1A2. The following applies: human liver microsomes, read-out: IC50 Value, reported CYP1A2 inhibition, cited from earlier work.
A further data set concerns CYP2C8/C9/C19. The following applies: human liver microsomes; read-out: IC50 Value, reported CYP2C8/C9/C19 inhibition; cited from earlier work.
[3] abbreviates: recombinant human CYP1A2, individual phytochemicals.

Converted amounts (≈) assume the structure as drawn. “Also recorded” adds a separate entry of the source. Like-named read-outs stand apart in the source and are kept apart here.

Take `O=C1O[C@H]([C@@H](O)CO)C(O)=C1O` [Ascorbic acid]: the results for the “IC50, DPPH antioxidant assay” value in data set [1] and in data set [1] (listed as ascorbic acid) were 1.32 ± 0.0 µg/mL (≈ 7.49 µM) and 1.3 µg/mL (≈ 7.38 µM), respectively.
Regarding `COc1cc([C@@H]2c3cc4c(cc3[C@H](O)[C@H]3COC(=O)[C@H]23)OCO4)cc(OC)c1OC` [Podophyllotoxin], the “IC50, CYP1A2 activity” value at human CYP1A2 (setting [3]) is listed as “No inhibition”; at human CYP1A2 (recombinant human CYP1A2, individual phytochemicals, listed as podophyllotoxin), “no impact; also recorded: no inhibition”.
As for `O=C(/C=C/c1ccc(O)c(O)c1)O[C@H](Cc1ccc(O)c(O)c1)C(=O)O` [Rosmarinic acid], the IC50 in the data set on CYP2D6 was > 500 µM; in the data set with CYP3A4, 241 µM; in the data set with CYP2C9, 319 µM. Moreover, in the data set with CYP3A4, the “IC50 Value, reported CYP3A4 inhibition” value is recorded as “No impact”.
As for `COc1cc(C[C@H]2C(=O)OC[C@@H]2Cc2ccc3c(c2)OCO3)cc(OC)c1OC` [(-)-Yatein], the IC50 on human CYP1A2 was found to be 71.9 ± 1.8 µM.
In the case of `C[C@H]1[C@H](C)CC[C@]2(C(=O)O)CC[C@]3(C)C(=CC[C@@H]4[C@@]5(C)CC[C@H](O)C(C)(C)[C@@H]5CC[C@]43C)[C@H]12` [Ursolic acid], the IC50 against human CYP1A2 was > 100 µM.
For `Cc1c(C)c2c(c(C)c1O)CCC(C)(C(=O)O)O2` (stereo not drawn) [Trolox], the “IC50, DPPH assay” value in data set [2] was 1.99 µg/mL (≈ 7.95 µM).
Consider `CC1(C)CC[C@]2(C(=O)O)CC[C@]3(C)C(=CC[C@@H]4[C@@]5(C)CC[C@H](O)C(C)(C)[C@@H]5CC[C@]43C)[C@@H]2C1` [Oleanolic acid], for which the IC50 with CYP2D6 (human liver microsomes) is > 500 µM; with CYP1A2 (listed as oleanolic) it was > 100 µM; in the data set with CYP1A2, 144 µM; in the data set with CYP3A4 (human liver microsomes), […]; on human CYP1A2, > 100 µM; with CYP2C8/C9/C19, > 500 µM.
As to `COc1cc([C@@H]2c3cc4c(cc3[C@H](O)[C@H]3COC(=O)[C@H]23)OCO4)cc(OC)c1O` [4′-Demethylpodophyllotoxin], the “IC50, CYP1A2 activity” value is listed as “No inhibition” at human CYP1A2 (setting [3]); “no inhibition” on human CYP1A2 (recombinant human CYP1A2, individual phytochemicals, listed as 4-demethylpodophyllotoxin); “no impact” at human CYP1A2 (recombinant human CYP1A2, individual phytochemicals, listed as 4′-demethylpodophyllotoxin).
In the case of `C=C1CCC(C(C)C)C2C=C(C)C(=O)CC12` (stereo not drawn) [Cadina-4,10(15)-dien-3-one], the IC50 on human CYP1A2 (read-out: IC50, CYP1A2 activity, recombinant human CYP1A2, individual phytochemicals) is > 500 µM.
